# Assay results from patent US20240010685A1, “RNA SENSORS AND USES THEREOF” (YISSUM RESEARCH DEVELOPMENT COMPANY OF THE HEBREW …, priority 2020, published 2024).
# Values joined by “and” are separate entries in the source; they are usually repeats but may differ in a detail not shown here. Equal values may be shown once.
# System: complementary RNA
# Assay: photophysical properties of duplex cpFIT-PNAs with complementary RNA (fluorescence spectrometry)
# Assay type: physicochemical
# Conditions: [FIT-PNA]=3 μM, [RNA]=4.5 μM
# Method: (A) set 1 showing fluorescence of FIT-PNA:RNA duplex for FIT-PNAs 1-4, (B) set 2 showing fluorescence of FIT-PNA:RNA duplex for FIT-PNAs 5-7 and, (C) enhanced fluorescence of bis-cpFIT-PNAs (4 and 7) after RNA hybridization. [FIT-PNA]=[cpFIT-PNA]=3 μM, [RNA]=4.5 μM.
# Fluorescence spectra were recorded by using a Jasco FT-6500 spectrometer. Measurements were carried out in fluorescence quartz cuvettes (10 mm) at a 3 μM concentration of FIT-PNA in a PBS buffered solution (100 mM NaCl, 10 mM NaH2PO4, pH 7). Quantum yields were determined relative to Cresyl Violet in PBS^3. PNAs were hybridized to complementary RNA using a 1:1.5 mixture of PNA:RNA at 37° C. for 1-2 hr. Samples were excited at 575 nm and emission spectra were recorded at 585-800 nm.
row,Substance,enhancement upon duplex formation with complementary RNA [fold]
1,^3′(4)KD-ATA-cpC-BisQ-cpT-ACAAC-5′ [FIT-PNA 4],46
2,^3′(4)KD-ATACA-cpT-BisQ-cpC-AAC-^5′ [FIT-PNA 7],47

# Same assay, conditions: duplex with complementary RNA
BR (brightness),εmax [mM⁻¹ cm⁻¹],"λmax, abs [nm]",Substance
28.3 mM⁻¹ cm⁻¹,85.8,590,^3′(4)KD-ATA-cpC-BisQ-cpT-ACAAC-5′ [FIT-PNA 4]
15 mM⁻¹ cm⁻¹ and 15.0 mM⁻¹ cm⁻¹,83.2,588,"^3′(4)KD-ATA-C-BisQ-TACAAC-^5′ [FIT-PNA 1, reference compound]"
29.1 mM⁻¹ cm⁻¹,85.7,586,^3′(4)KD-ATACA-cpT-BisQ-C-AAC-^5′ [FIT-PNA 6]
25.7 mM⁻¹ cm⁻¹,95.2,589,^3′(4)KD-ATA-cpT-BisQ-T-ACAAC-^5′ [FIT-PNA 3]
16.4 mM⁻¹ cm⁻¹,91.0,590,^3′(4)KD-ATA-C-BisQ-cpT-ACAAC-5′ [FIT-PNA 2]
16.5 mM⁻¹ cm⁻¹,82.3,587,"^3′(4)KD-ATACA-T-BisQ-C-AAC-^5′ [FIT-PNA 5, reference compound]"
35.3 mM⁻¹ cm⁻¹,90.6,586,^3′(4)KD-ATACA-cpT-BisQ-cpC-AAC-^5′ [FIT-PNA 7]

# Same assay, conditions: duplex with complementary RNA; relative to Cresyl Violet; 3 μM FIT-PNA in PBS pH 7
row,"Φ (quantum yield, QY)",Substance
1,0.33,^3′(4)KD-ATA-cpC-BisQ-cpT-ACAAC-5′ [FIT-PNA 4]
2,0.18,"^3′(4)KD-ATA-C-BisQ-TACAAC-^5′ [FIT-PNA 1, reference compound]"
3,0.34,^3′(4)KD-ATACA-cpT-BisQ-C-AAC-^5′ [FIT-PNA 6]
4,0.27,^3′(4)KD-ATA-cpT-BisQ-T-ACAAC-^5′ [FIT-PNA 3]
5,0.18,^3′(4)KD-ATA-C-BisQ-cpT-ACAAC-5′ [FIT-PNA 2]
6,0.20,"^3′(4)KD-ATACA-T-BisQ-C-AAC-^5′ [FIT-PNA 5, reference compound]"
7,0.39,^3′(4)KD-ATACA-cpT-BisQ-cpC-AAC-^5′ [FIT-PNA 7]

# Same assay, conditions: fluorescence enhancement, duplex with complementary RNA vs single strand
row,Substance,I/I0
1,^3′(4)KD-ATA-cpC-BisQ-cpT-ACAAC-5′ [FIT-PNA 4],46
2,"^3′(4)KD-ATA-C-BisQ-TACAAC-^5′ [FIT-PNA 1, reference compound]",12
3,^3′(4)KD-ATACA-cpT-BisQ-C-AAC-^5′ [FIT-PNA 6],46
4,^3′(4)KD-ATA-cpT-BisQ-T-ACAAC-^5′ [FIT-PNA 3],12
5,^3′(4)KD-ATA-C-BisQ-cpT-ACAAC-5′ [FIT-PNA 2],15
6,"^3′(4)KD-ATACA-T-BisQ-C-AAC-^5′ [FIT-PNA 5, reference compound]",24
7,^3′(4)KD-ATACA-cpT-BisQ-cpC-AAC-^5′ [FIT-PNA 7],47

# System: complementary RNA
# Assay: Tm of RNA:PNA duplexes (duplex stability)
# Assay type: binding
# Set-up: ΔTm: unit not given here
# Conditions: RNA:PNA duplex
# Method: In addition, the enhancement upon duplex formation with complementary RNA observed for these FIT-PNAs (4 and 7) was quite dramatic; 47-fold for FIT-PNA 7 and 46-fold for FIT-PNA 4 (FIG. 1B). The effect of cpPNA monomers to duplex stability was assessed by measuring Tm for all RNA:PNA duplexes (Table 2). The stabilizing effect was smaller for FIT-PNA in comparison to that reported for cpPNA. It is believed that this is due to the close proximity of the modified bases to the bulkier BisQ surrogate base in comparison to natural bases. For all measurements an additional transition at 60° C. was observed.
row,Substance,Tm [°C]
1,^3′(4)KD-ATA-cpC-BisQ-cpT-ACAAC-5′ [FIT-PNA 4],54.7
2,"^3′(4)KD-ATA-C-BisQ-TACAAC-^5′ [FIT-PNA 1, reference compound]",50.2
3,^3′(4)KD-ATACA-cpT-BisQ-C-AAC-^5′ [FIT-PNA 6],53
4,^3′(4)KD-ATA-cpT-BisQ-T-ACAAC-^5′ [FIT-PNA 3],53.7
5,^3′(4)KD-ATA-C-BisQ-cpT-ACAAC-5′ [FIT-PNA 2],53.7
6,"^3′(4)KD-ATACA-T-BisQ-C-AAC-^5′ [FIT-PNA 5, reference compound]",51.8
7,^3′(4)KD-ATACA-cpT-BisQ-cpC-AAC-^5′ [FIT-PNA 7],52.9

# Same assay, conditions: vs unmodified control FIT-PNA of the set (1 or 5)
row,Substance,ΔTm
1,^3′(4)KD-ATA-cpC-BisQ-cpT-ACAAC-5′ [FIT-PNA 4],(+4.5)
2,^3′(4)KD-ATACA-cpT-BisQ-C-AAC-^5′ [FIT-PNA 6],(+1.2)
3,^3′(4)KD-ATA-cpT-BisQ-T-ACAAC-^5′ [FIT-PNA 3],(+3.5)
4,^3′(4)KD-ATA-C-BisQ-cpT-ACAAC-5′ [FIT-PNA 2],(+3.5)
5,^3′(4)KD-ATACA-cpT-BisQ-cpC-AAC-^5′ [FIT-PNA 7],(+1.1)

# System: 11-mer RNAs with all three possible mismatches
# Assay: mismatch sensitivity of cpFIT-PNAs, plate reader
# Assay type: binding
# Conditions: not given
# Method: Mismatch sensitivity was evaluated for single and doubly modified cpFIT-PNAs. Mismatch sensitivity for mono-substituted cpPNAs (cpFIT-PNAs 2, 3, and 6) are presented in FIGS. 3A-B. Double substituted cpFIT PNAs 4 and 7 were compared to FIT-PNA controls (1 and 5) and are presented in FIGS. 2A-B. 11-mer RNAs with all three possible mismatches were introduced either at 3′ (to the left of BisQ) or 5′ (to the right of BisQ) positions opposite to the nearby base to BisQ. One clear observation is that cpFIT-PNAs have significant selectivity for pyrimidine-pyrimidine mismatches (CC, TU, TC, CU where underlined base refers to PNA base) in comparison to FIT-PNA controls with the exception of the CU mismatch for cpFIT-PNA 4. For cpFIT-PNA 7, TC and TU mismatches are discriminated by a factor of 7.5 and 13.9-fold (vs. full matched RNA), respectively. This is around a 3 to 5-fold increase with respect to non-modified FIT-PNA 5.
# (A) double cpFIT-PNA 4 compared to FIT-PNA 1 and (B) double cpFIT-PNA 7 compared to FIT-PNA 5. FIT-PNAs were annealed to all possible 11-mer RNAs and measured on a plate reader (λex=575 λnm, Em=619 nm, n=3). [FIT-PNA]=[cpFIT-PNA]=0.5 μM, [RNA]=0.75 μM.
# FIGS. 3A-B provide mismatch sensitivity of single substituted cpFIT-PNAs. (A) cpFIT-PNA 2 and 3 and (B) cpFIT-PNA 6. FIT-PNAs (0.5 μM) were annealed to all possible 11-mer RNAs (0.75 μM) and measured on a plate reader (λex=575 nm, λem=619 nm, n=3).
# (§1) Fluorescence end points were recorded by using a Cytation 3 plate reader. Measurements were carried out in Greiner 96 well black plates with flat bottom, at 0.5 μM concentration in a PBS buffered solution (100 mM NaCl, 10 mM NaH2PO4, pH 7). FIT-PNAs were hybridized to complementary RNA using a 1:1.5 mixture of PNA:RNA at 37° C. for 1-2 hr or by allowing overnight incubation at RT (for limit of detection (LOD) measurements). Samples were excited at 575 nm and measured at 615 nm.
row,Substance,increase in TC/TU mismatch discrimination with respect to non-modified FIT-PNA 5 [fold]
1,^3′(4)KD-ATACA-cpT-BisQ-cpC-AAC-^5′ [FIT-PNA 7],3 to 5

# Same assay, conditions: 0.5 μM FIT-PNA, 0.75 μM RNA
Substance,TC mismatch discrimination vs. full matched RNA [fold],TU mismatch discrimination vs. full matched RNA [fold]
^3′(4)KD-ATACA-cpT-BisQ-cpC-AAC-^5′ [FIT-PNA 7],7.5,13.9

# System: complementary RNA
# Assay: limit of detection (LOD) measurements, plate reader
# Conditions: overnight incubation at RT
# Method: As used herein, the term “amount” made in reference to presence of an SOI in a sample, refers to a quantity of the SOI that is sufficient to interact with a conjugate of the invention to provide a measurable signal. This amount is in the low nM range as shown for FIT-PNA 7 (Table 2).
# as §1
row,Substance,amount of SOI sufficient to provide a measurable signal
1,^3′(4)KD-ATACA-cpT-BisQ-cpC-AAC-^5′ [FIT-PNA 7],low nM range

# System: BRAF V600E point mutation
# Assay: fluorescence spectra of BRAF FIT-PNA with fully matched RNA (mutant) and mis-match RNA (WT)
# Conditions: 1 μM PNA, 1.5 μM RNA
# From the text: The data points to the added value of introducing the PEG8 linker. Clearly, the addition of the PEG8 linker improves the signal for fully matched RNA without losing the discrimination for the SNP. The addition of cpPNAs on both sides of BisQ (Table 2) results in an increased fluorescence in signal with mutant RNA (FIG. 6), however, the signal for WT RNA (with mismatch) also increases. This leads to some loss of discrimination for this SNP.
# FIGS. 5A-B depict the added value of the PEG8 linker. Fluorescence spectra of CLIP6 FIT-PNA (5A, right) and, CLIP6-PEG8-FIT-PNA (5B, left) with fully matched RNA (mutant) and mis-match RNA (WT).
# FIG. 6 depicts the increase in fluorescence for BRAF FIT-PNA substituted with cp. Fluorescence spectra of CLIP6-PEG8-cpFIT-PNA (1 μM) with fully matched RNA (mutant, (1.5 μM)) and mis-match RNA (WT, (1.5 μM)). A two-fold increase in fluorescence is obtained in comparison to the non-modified FIT-PNA (CLIP6-PEG8-FIT-PNA). An 18-fold enhancement in fluorescence is observed for CLIP6-PEG8-cpFIT-PNA in duplex form (with complementary RNA) in comparison to single strand.
row,Substance,enhancement in fluorescence in duplex form (with complementary RNA) in comparison to single strand [fold]
1,GATTcpT-BisQ-TCTGTAGCTAC-PEG8-CLIP6 [CLIP6-PEG8-cpFIT-PNA],18

# Same assay, conditions: 1 μM PNA, 1.5 μM fully matched RNA (mutant)
row,Substance,increase in fluorescence in comparison to the non-modified FIT-PNA (CLIP6-PEG8-FIT-PNA)
1,GATTcpT-BisQ-TCTGTAGCTAC-PEG8-CLIP6 [CLIP6-PEG8-cpFIT-PNA],two-fold

# System: CCAT1
# Assay: fluorescence of CCAT1 FIT-PNA with RNA
# Conditions: [RNA]=1.5 μM and [FIT-PNA]=1 μM
# From the text: Methylating the N-7 position of Guanosine base of a PNA monomer (G+ PNA monomer) results in an improvement in the hybridization to complementary DNA whilst avoiding PNA:PNA inter- and intra-duplex formation. As enhancement of FIT-PNA fluorescence depends on the ratio between ss/ds forms (PNA/PNA:RNA), lowering the background fluorescence of ssPNA should result in greater sensitivity (i.e. increased fluorescence enhancement). In the ss form, the FIT-PNA has low background fluorescence due to […] interactions between the aromatic BisQ and adjacent aromatic PNA monomers (especially purines: G and A). As BisQ has a delocalized positive charge (from nitrogen to nitrogen), the introduction of an adjacent positive charge on G or A causes electrostatic repulsion between BisQ and G+/A+ resulting in reduced background fluorescence. […] Data points to both a decrease in signal background of ssFIT-PNA and to an increase in fluorescence in duplex form (FIT-PNA:RNA) in comparison to non-modified CCAT1 FIT-PNA (FIG. 7). […]
# In some embodiments, the modified or charged bases, G^+ and A^+, may be provided with a cp group positioned in their vicinity or as a cpG^+or cpA^+ monomer, in similarity to cpBisQ (Scheme 4). […] Data points to an increase in fluorescence in duplex form (FIT-PNA:RNA) in comparison to non-modified CCAT1 FIT-PNA as well as G+ and cpG modified CCAT1 FIT-PNA sequences (FIG. 8). […]
row,Substance,increase in fluorescence [fold]
1,CCAACCT-BisQ-cpG^+TAAGTG-dK4 [cpG^+ modified CCAT1 FIT-PNA],10
2,CCAACCT-BisQ-G^+TAAGTG-dK4 [G^+ modified CCAT1 FIT-PNA],7
